Assay results published in patent US9550744B2, “Vitamin C prodrugs and uses thereof” (priority 2013, dated 2017).

Assays:
[1] = solubility in water, room temperature (23±0.5° C.)
Method: After the suspensions were allowed to settle, about 0.020 mL of each supernatant was added to a UV cuvette containing about 2.98 mL of Millipore H2O, and the UV absorption of each solution was measured. The concentration, SAQ, of each compound was determined using Beer's Law and the previously measured molar absorptivities (ε, L mol^−1cm^−1) of each compound in water where A is the absorbance (no units), b is the path length of the cuvette (cm) and c is the concentration (mol L^−1) of each compound in the supernatant. Beer's Law: A=εbc c=A/εb

[2] = solubility in octanol, room temperature
Method: Lipid solubility (SLIPID): Each compound (50-100 mg) was stirred at rt in four test tubes containing 2 or 3 mL of isopropyl myristate (IPM) or octanol (OCT) overnight. The saturated suspensions were filtered and about 0.020 mL of each filtrate was diluted with 5 or 10 mL of acetonitrile (ACN). The UV absorbances of the diluted filtrates were measured and the concentrations of each compound in either IPM (SIPM) or OCT (SOCT) were determined using Beer's Law as above but using previously measured ε of each compound in ACN.
The solubilities in the lipid, SOCT or SIPM, could also then be calculated from KLIPID:AQ=SLIPID/SAQ.

[3] = Hydrolysis at pH 10.0 followed by iodine titration; format: physicochemical; settings: pH 10.0, iodine titration with starch indicator
Method: If no free enediol is present, the excess iodine reacts with a starch indicator to give a blue color. During the titration, as iodine solution was added to the prodrug solution, a blue color formed initially but faded as the free enediol was released by hydrolysis of the prodrug and the iodine was reduced to iodide.

Row | Structure (SMILES) | log SAQ [1] | log SOCT [2] | theoretical amount of ascorbic acid acetonide formed from hydrolysis of the prodrug [3] [%]
1 | CC(=O)OCOC1=C(OC(C)=O)C(=O)OC1C1COC(C)(C)O1 [2-AcC1-3-SMC1 ascorbic acid acetonide, 5,6-Isopropylidene-3-O-(acetyloxymethyl)-2-O-acetyl-L-ascorbic acid] | 1.56 | 1.55 | –
2 | CC(=O)OCOC1=C(OC(C)=O)C(=O)OC1C(O)CO (centres unmarked) [2-AcC1-3-SMC1 ascorbic acid] | 2.05 | 1.66 | –
3 | CCC(=O)OCOC1=C(OC(=O)CC)C(=O)OC1C1COC(C)(C)O1 (centres unmarked) [2-ethylcarbonyl-3-ethylcarbonyloxymethyl-5,6-isopropylidene ascorbic acid] | – | – | 95.7
